This note sets out measurements from patent US11370761B2, “Voltage-dependent T-type calcium channel inhibitor” (Nippon Chemiphar Co., Ltd., priority 2017, dated 2022).

Some results are limits rather than exact numbers.

Experiment [1] addresses T1, human Cav3.2 channel (Homo sapiens, UniProt O95180).
T1 construct: expressed in transfected cells
Kind of experiment: Intracellular calcium concentration measurement in human Cav3.2 channel expressing stable cell line (Pharmacological Test 1). As to conditions: HEK293 cells stably expressing human Cav3.2, Fluo-4 AM fluorescence, KCl stimulation; read-out: Cav3.2 channel inhibitory action. Format: cell-based. The text has this: (1) Construction of Human Cav3.2 Channel Expressing Stable Cell Line
A sequence in which a HindIII site and a kozak sequence (GCCACC) was provided on a 5′ side of a human Cav3.2 channel open reading frame (ORF) gene and a KpnI site was provided on a 3′ side thereof was incorporated into pcDNA3.1(+) (Thermo Fisher Scientific #V790-20), and the resultant was transfected into a HEK293 cell (ATCC No. CRL-1573) according to a protocol of FuGENE (registered trademark) HD Transfection Reagent (Promega #E2311).
(2) Method of Measuring Intracellular Calcium Concentration
The human Cav3.2 channel expressing stable cell line prepared by the test method (1) was seeded in a 96-well plate using a Dulbecco's modified Eagle's medium (DMEM medium) containing 10% fetal bovine serum (FBS), followed by culturing 37° C. for 48 hours under a 5% CO2 condition. Thereafter, the medium was removed, and each well washed with an A buffer was treated with 80 μL of a fluorescent dye solution containing a liquid mixture of 22 μg of a calcium fluorescent indicator Fluo-4 AM (Dojindo Molecular Technologies, Inc., #F311), 20 μL of dimethyl sulfoxide (DMSO), 1 μL of 10% Pluronic F-127 (Thermo Fisher Scientific #P6866), and 4 mL of the A buffer. After being left to stand for 45 minutes at room temperature under a light shielding condition, the cells were washed with a B buffer. In DMSO having the same final concentration as the test compound as a negative control, and the test compound dissolved in DMSO to have a final concentration of 0.1%, each test compound concentration solution containing the B buffer was added to each well. The cells were left to stand for additional 15 minutes at room temperature under a light shielding condition, and were measured using microplate reader EnVision (PerkinElmer Co., Ltd.) by the following method. First, after measuring background fluorescence in each well, an ionophore was added, and baseline fluorescence was measured. Thereafter, B buffer containing added KCl at a concentration of 83.8 mM was added to each well, and an increase in fluorescence due to calcium influx caused by the stimulation was measured for 10 seconds. Inhibition percentage was calculated from the maximum fluorescence increase value from the baseline, and an IC50 value was calculated by plotting a logarithmic value of the test compound concentration and inhibition activity. The measurement was performed by observing fluorescence of 510 nm emitted when the cells were irradiated with excitation light of 485 nm.
A buffer: 140 mM NaCl, 5 mM KCl, 1 mM MgCl2, 0.5 mM CaCl2, 10 mM Glucose, 10 mM HEPES, pH 7.3
B buffer: potassium equilibrium potential: −92 mV
On the technique in general: Calcium flux is commonly read through the fluorescence of an indicator in the cells.

For experiment [2], the target named is T1, human Cav3.2 channel. Kind of experiment: Electrophysiological evaluation, automated whole-cell patch clamp of Cav3.2 channel current (Pharmacological Test 2). Format: cell-based. As to conditions: for inhibition at 0.3 µM: read-out: Cav3.2 channel current inhibition rate in test compound of 0.3 μM (holding potential of −80 mV) (%); for inhibition at 3 µM: 3 μM test compound, holding potential −100 mV, read-out: Cav3.2 channel current inhibition rate in test compound of 3 μM (holding potential of −100 mV) (%). Here is the method:
The human Cav3.2 channel expressing stable cell line prepared by the test method (1) of Example 36 was seeded in a 10-cm dish using a DMEM medium containing 10% FBS, followed by culturing 37° C. for 24 hours under a 5% CO2 condition. The cells were detached using Accutase, and suspended in ice-cooled extracellular fluid for use. A Cav3.2 channel current was measured using an automated patch clamp system (Port-a-Patch; Nanion Technologies, EPC-10; HEKA Elektronik GmbH, Patchmaster; HEKA Elektronik GmbH) and buffers shown below, by a whole-cell patch-clamp method. The measurement of the Cav3.2 channel current was performed at room temperature, a measurement condition was a holding potential of −80 mV, a depolarization potential was −20 mV, a depolarization time was 100 msec, and a depolarization frequency was 10 sec. The Cav3.2 channel current was a peak value of an inward current observed at the time of depolarization to −20 mV.
The test compound was obtained by diluting a DMSO solution 1000 times with extracellular fluid to prepare a solution having a target concentration. The test compound was applied using an external perfusion system (Nanion Technologies) until the Cav3.2 channel current was stabilized, and a maximum of five concentrations from the low concentration side were cumulatively applied. An inhibition rate of the test compound was calculated from a change rate between a current value immediately before application of the test compound and the Cav3.2 channel current after application of the test compound (in a condition of holding potential of −80 mV, a concentration of the test compound was 0.3 μM, and in a condition of holding potential of −100 mV, a concentration of the test compound was 3 μM).
Extracellular fluid: 135 mM NaCl, 4 mM KCl, 1 mM MgCl2, 5 mM CaCl2, 5 mM D-Glucose, 10 mM HEPES, pH 7.4
Electrode internal fluid: 10 mM NaCl, 10 mM HEPES, 50 mM CsCl, 60 mM Cs-Fluoride, 20 mM EGTA, pH 7.2
(The patch-clamp technique gives a direct electrical read-out from membranes.)

Setting [3] is: 0.3 μM test compound, holding potential −80 mV, depolarization to −20 mV.

T1 sequence (O95180 whole entry): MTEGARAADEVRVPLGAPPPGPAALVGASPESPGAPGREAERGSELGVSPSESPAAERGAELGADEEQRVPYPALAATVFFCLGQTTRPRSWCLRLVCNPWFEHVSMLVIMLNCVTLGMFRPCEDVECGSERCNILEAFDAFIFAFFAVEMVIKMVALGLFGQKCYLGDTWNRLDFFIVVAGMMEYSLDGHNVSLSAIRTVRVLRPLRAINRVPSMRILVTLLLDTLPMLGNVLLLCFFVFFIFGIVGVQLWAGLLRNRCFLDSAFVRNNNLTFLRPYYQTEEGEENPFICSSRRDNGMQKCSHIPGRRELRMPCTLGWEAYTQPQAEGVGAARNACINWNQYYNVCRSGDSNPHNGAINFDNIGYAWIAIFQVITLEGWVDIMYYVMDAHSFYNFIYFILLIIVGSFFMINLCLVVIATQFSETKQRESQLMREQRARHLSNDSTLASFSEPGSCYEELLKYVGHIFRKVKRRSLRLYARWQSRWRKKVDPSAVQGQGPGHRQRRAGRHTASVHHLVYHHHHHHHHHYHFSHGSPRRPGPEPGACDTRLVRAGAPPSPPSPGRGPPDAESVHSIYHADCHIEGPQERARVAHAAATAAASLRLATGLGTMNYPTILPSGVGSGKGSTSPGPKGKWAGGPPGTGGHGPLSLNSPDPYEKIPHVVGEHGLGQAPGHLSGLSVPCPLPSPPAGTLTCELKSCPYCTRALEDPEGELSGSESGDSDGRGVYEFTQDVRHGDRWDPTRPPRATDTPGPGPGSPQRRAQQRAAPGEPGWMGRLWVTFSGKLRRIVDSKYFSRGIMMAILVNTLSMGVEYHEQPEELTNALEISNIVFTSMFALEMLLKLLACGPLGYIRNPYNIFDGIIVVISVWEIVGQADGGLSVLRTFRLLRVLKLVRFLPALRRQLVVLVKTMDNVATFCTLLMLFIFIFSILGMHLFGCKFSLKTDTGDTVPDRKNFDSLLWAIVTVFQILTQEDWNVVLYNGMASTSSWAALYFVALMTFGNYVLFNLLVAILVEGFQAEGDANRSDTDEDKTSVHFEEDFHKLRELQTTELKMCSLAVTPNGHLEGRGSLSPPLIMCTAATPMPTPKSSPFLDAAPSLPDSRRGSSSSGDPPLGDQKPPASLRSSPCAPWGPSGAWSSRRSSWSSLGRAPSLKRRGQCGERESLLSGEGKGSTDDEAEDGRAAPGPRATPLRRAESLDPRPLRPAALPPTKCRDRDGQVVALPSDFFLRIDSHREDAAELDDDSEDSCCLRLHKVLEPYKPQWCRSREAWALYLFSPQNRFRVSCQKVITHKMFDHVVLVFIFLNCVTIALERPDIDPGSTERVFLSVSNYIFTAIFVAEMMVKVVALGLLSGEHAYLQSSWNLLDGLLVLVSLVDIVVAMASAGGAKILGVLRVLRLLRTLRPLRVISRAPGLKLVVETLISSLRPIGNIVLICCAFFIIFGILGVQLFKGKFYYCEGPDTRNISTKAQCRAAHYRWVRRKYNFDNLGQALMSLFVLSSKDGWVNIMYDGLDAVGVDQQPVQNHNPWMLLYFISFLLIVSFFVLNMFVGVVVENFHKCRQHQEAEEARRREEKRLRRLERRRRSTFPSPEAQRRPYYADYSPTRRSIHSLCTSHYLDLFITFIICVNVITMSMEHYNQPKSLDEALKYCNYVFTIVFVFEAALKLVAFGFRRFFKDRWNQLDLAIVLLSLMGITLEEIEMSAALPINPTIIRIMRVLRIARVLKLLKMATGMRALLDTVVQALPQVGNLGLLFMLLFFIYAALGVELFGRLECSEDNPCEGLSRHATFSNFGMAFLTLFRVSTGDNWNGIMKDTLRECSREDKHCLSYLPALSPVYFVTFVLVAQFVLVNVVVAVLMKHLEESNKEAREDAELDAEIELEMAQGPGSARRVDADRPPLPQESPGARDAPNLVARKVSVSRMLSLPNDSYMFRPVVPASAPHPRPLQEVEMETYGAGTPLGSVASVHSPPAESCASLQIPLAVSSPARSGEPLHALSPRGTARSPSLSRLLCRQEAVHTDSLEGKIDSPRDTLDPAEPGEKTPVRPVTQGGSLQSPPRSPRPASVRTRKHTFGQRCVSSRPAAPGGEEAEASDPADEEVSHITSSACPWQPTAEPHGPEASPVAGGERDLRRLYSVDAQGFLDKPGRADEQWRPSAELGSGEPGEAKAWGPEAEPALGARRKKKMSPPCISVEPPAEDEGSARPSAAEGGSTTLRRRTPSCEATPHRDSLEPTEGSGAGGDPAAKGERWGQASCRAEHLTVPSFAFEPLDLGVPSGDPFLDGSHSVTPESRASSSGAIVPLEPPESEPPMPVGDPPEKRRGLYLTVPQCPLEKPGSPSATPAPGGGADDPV

As for `O=C(CNC(=O)[C@@H]1C[C@H]1c1nc2ccccc2[nH]1)Nc1ccc(C(F)(F)F)cc1` (relative stereo) [Example 20, Trans-2-(1H-benzo[d]imidazol-2-yl)-N-(2-oxo-2-((4-(trifluoromethyl)phenyl)amino)ethyl) cyclopropane-1-carboxamide], the IC50 on human Cav3.2 channel [1] fell in the range of 100 to 1000 nM. In addition, the inhibition (in general, the change of the read-out against control, counted positive when it falls) at 0.3 µM on human Cav3.2 channel [2] (setting [3]) stood at 39%. Further, at human Cav3.2 channel [2], the inhibition at 3 µM was 32%.

Turning to `O=C(NC1(C(=O)Nc2ccc(C(F)(F)F)cc2)CC1)[C@@H]1C[C@H]1c1nc2ccccc2[nH]1` (relative stereo) [Example 21, Trans-1-(2-(1H-benzo[d]imidazol-2-yl)cyclopropane-1-carboxamido)-N-(4-(trifluoromethyl)phenyl) cyclopropane-1-carboxamide], the IC50 at human Cav3.2 channel [1] was in the range of 100 to 1000 nM. Also, on human Cav3.2 channel [2] (setting [3]), the inhibition at 0.3 µM was found to be 51%. On human Cav3.2 channel [2], the inhibition at 3 µM was determined as 41%.

For `CCCc1ccc(NC(=O)C(C)NC(=O)C2CC2c2nc3ccccc3[nH]2)cc1` (single isomer, unassigned) [Example 1A, Trans-2-(1H-benzo[d]imidazol-2-yl)-N-(1-oxo-1-((4-propylphenyl)amino)propan-2-yl) cyclopropane-1-carboxamide], the IC50 on human Cav3.2 channel [1] was 100 to 1000 nM. Moreover, on human Cav3.2 channel [2] (setting [3]), the inhibition at 0.3 µM was 86%.

As for `CC(NC(=O)C1CC1c1nc2ccccc2[nH]1)C(=O)Nc1ccc(C(F)(F)F)cc1` (single isomer, unassigned) [Example 4A, Trans-2-(1H-benzo[d]imidazol-2-yl)-N-(1-oxo-1-((4-(trifluoromethyl)phenyl)amino)propan-2-yl) cyclopropane-1-carboxamide], the IC50 on human Cav3.2 channel [1] was 100 to 1000 nM. The inhibition at 0.3 µM at human Cav3.2 channel [2] (setting [3]) was 43%. Besides, at human Cav3.2 channel [2], the inhibition at 3 µM was 38%.

For the compound `CC(NC(=O)C1CC1c1nc2ccccc2[nH]1)C(=O)Nc1ccc(C(F)(F)F)cc1` (single isomer, unassigned) [Example 4B, Trans-2-(1H-benzo[d]imidazol-2-yl)-N-(1-oxo-1-((4-(trifluoromethyl)phenyl)amino)propan-2-yl) cyclopropane-1-carboxamide], the IC50 at human Cav3.2 channel [1] was in the range of 100 to 1000 nM. Besides, on human Cav3.2 channel [2] (0.3 μM test compound, holding potential −80 mV, depolarization to −20 mV, 0.3 µM), the “Cav3.2 channel current inhibition rate in test compound of 0.3 μM (holding potential of −80 mV) (%)” value is 23%.

In the case of `CC(NC(=O)C1CC1c1nc2ccccc2[nH]1)C(=O)Nc1ccc(C(C)(C)C)cc1` (single isomer, unassigned) [Example 7A, Trans-2-(1H-benzo[d]imidazol-2-yl)-N-(1-((4-(tert-butyl)phenyl)amino)-1-oxopropan-2-yl) cyclopropane-1-carboxamide], at human Cav3.2 channel [1], the IC50 fell in the range of 100 to 1000 nM. In addition, the inhibition at 0.3 µM on human Cav3.2 channel [2] (setting [3]) was 30%.

In the case of `CC(NC(=O)C1CC1c1nc2ccccc2[nH]1)C(=O)Nc1cnc(Br)cn1` (single isomer, unassigned) [Example 18A, Trans-2-(1H-benzo[d]imidazol-2-yl)-N-(1-((5-bromopyrazin-2-yl)amino)-1-oxopropan-2-yl) cyclopropane-1-carboxamide], the IC50 at human Cav3.2 channel [1] was in the range of 100 to 1000 nM. Also, at human Cav3.2 channel [2] (setting [3]), the inhibition at 0.3 µM is 46%.

Regarding `O=C(NC1(C(=O)Nc2cccc(C(F)(F)F)c2)CC1)[C@H]1C[C@@H]1c1nc2ccccc2[nH]1` [Example 22, 1-((1S, 2S)-2-(1H-Benzo[d]imidazol-2-yl)cyclopropane-1-carboxamido)-N-(3-(trifluoromethyl)phenyl) cyclopropane-1-carboxamide], the IC50 at human Cav3.2 channel [1] is no more than 100 nM. In addition, the inhibition at 0.3 µM on human Cav3.2 channel [2] (setting [3]) amounted to 95%.

On to `O=C(NC1(C(=O)Nc2cc(Cl)cc(Cl)c2)CC1)[C@H]1C[C@@H]1c1nc2ccccc2[nH]1` [Example 35, 1-((1S, 2S)-2-(1H-Benzo[d]imidazol-2-yl)cyclopropane-1-carboxamido)-N-(3,5-dichlorophenyl) cyclopropane-1-carboxamide], for which the IC50 at human Cav3.2 channel [1] was 100 to 1000 nM.

In the case of `O=C(NC1(C(=O)Nc2cccc(C(F)(F)F)c2)CCC1)[C@H]1C[C@@H]1c1nc2ccccc2[nH]1` [Example 36, 1-((1S, 2S)-2-(1H-Benzo[d]imidazol-2-yl)cyclopropane-1-carboxamido)-N-(3-(trifluoromethyl)phenyl) cyclobutane-1-carboxamide], the IC50 at human Cav3.2 channel [1] was no more than 100 nM.

With `CC(C)C[C@@H](NC(=O)[C@H]1C[C@@H]1c1nc2ccccc2[nH]1)C(=O)Nc1cccc(C(F)(F)F)c1` [Example 37, (1S, 2S)-2-(1H-Benzo[d]imidazol-2-yl)-N—((R)-4-methyl-1-oxo-1-((3-(trifluoromethyl)phenyl)amino)pentan-2-yl) cyclopropane-1-carboxamide], at human Cav3.2 channel [1], the IC50 was in the range of 100 to 1000 nM.

On to `O=C(CNC(=O)[C@H]1C[C@@H]1c1nc2ccccc2[nH]1)Nc1cccc(C(F)(F)F)c1` [Example 39, (1S, 2S)-2-(1H-Benzo[d]imidazol-2-yl)-N-(2-oxo-2-((3-(trifluoromethyl)phenyl)amino)ethyl) cyclopropane-1-carboxamide], for which the IC50 at human Cav3.2 channel [1] was no more than 100 nM.

Regarding `O=C(NC1(C(=O)Nc2cccc(C(F)(F)F)c2)CC1)[C@H]1C[C@@H]1c1nc2ccccc2n1C1CC1` [Example 40, 1-((1S, 2S)-2-(1-Cyclopropyl-1H-benzo[d]imidazol-2-yl)cyclopropane-1-carboxamido)-N-(3-(trifluoromethyl)phenyl) cyclopropane-1-carboxamide], the IC50 on human Cav3.2 channel [1] is no more than 100 nM.

Regarding `O=C(NC1(C(=O)Nc2cccc(C(F)(F)F)c2F)CC1)[C@H]1C[C@@H]1c1nc2ccccc2[nH]1` [Example 41, 1-((1S, 2S)-2-(1H-Benzo[d]imidazol-2-yl)cyclopropane-1-carboxamido)-N-(2-fluoro-3-(trifluoromethyl)phenyl) cyclopropane-1-carboxamide], at human Cav3.2 channel [1], the IC50 was in the range of 100 to 1000 nM.

Regarding `O=C(NC1(C(=O)Nc2cc(F)cc(C(F)(F)F)c2)CC1)[C@H]1C[C@@H]1c1nc2ccccc2[nH]1` [Example 42, 1-((1S, 2S)-2-(1H-Benzo[d]imidazol-2-yl)cyclopropane-1-carboxamido)-N-(3-fluoro-5-(trifluoromethyl)phenyl) cyclopropane-1-carboxamide], the IC50 at human Cav3.2 channel [1] fell in the range of 100 to 1000 nM.

For `O=C(NC1(C(=O)Nc2cccc(OC(F)(F)F)c2)CC1)[C@H]1C[C@@H]1c1nc2ccccc2[nH]1` [Example 43, 1-((1S, 2S)-2-(1H-Benzo[d]imidazol-2-yl)cyclopropane-1-carboxamido)-N-(3-(trifluoromethoxy)phenyl) cyclopropane-1-carboxamide], the IC50 on human Cav3.2 channel [1] was no more than 100 nM.

As for `C[C@@H](NC(=O)C1CC1c1nc2ccccc2[nH]1)c1cnc(OCC(F)(F)F)cn1` (some centres unmarked) [RQ-00311651, reference compound], the inhibition at 0.3 µM on human Cav3.2 channel [2] (setting [3]) came to 17%. Besides, the inhibition at 3 µM on human Cav3.2 channel [2] came to 14%.
